Columns and labels:
[1] = tested on: parental IL-3 dependent Ba/F3 cells; assay: cells; conditions: Mus musculus, BaF3, read-out: GI50, Ba/F3 parental
[2] = tested on: chronic myelogenous leukemia; conditions: CML patients; about 30% prior to any targeted therapy; cited from earlier work
K562 = assay: Growth inhibition (GI50) in K562 CML cells; assay type: cell-based; conditions: Homo sapiens, K562, read-out: GI50, K562
MAP4K5 = MAP4K5 (Homo sapiens (Human), UniProt Q9Y4K4); assay: NanoSyn single-concentration kinase inhibition; assay type: biochemical; conditions: read-out: % inhibition at 100 nM, MAP4K5
VEGFR3 (FLT4) = VEGFR3 (FLT4) (Homo sapiens (Human), UniProt P35916); assay: NanoSyn single-concentration kinase inhibition; assay type: biochemical; conditions: read-out: % inhibition at 100 nM, VEGFR3 (FLT4)
FLT3 = FLT3 (Homo sapiens (Human), UniProt P36888); assay: NanoSyn single-concentration kinase inhibition; assay type: biochemical; conditions: read-out: % inhibition at 100 nM, FLT3
FGFR3 = FGFR3 (Homo sapiens (Human), UniProt P22607); assay: NanoSyn single-concentration kinase inhibition; assay type: biochemical; conditions: read-out: % inhibition at 100 nM, FGFR3
Sequence of FGFR3 (P22607 23-806, species assumed): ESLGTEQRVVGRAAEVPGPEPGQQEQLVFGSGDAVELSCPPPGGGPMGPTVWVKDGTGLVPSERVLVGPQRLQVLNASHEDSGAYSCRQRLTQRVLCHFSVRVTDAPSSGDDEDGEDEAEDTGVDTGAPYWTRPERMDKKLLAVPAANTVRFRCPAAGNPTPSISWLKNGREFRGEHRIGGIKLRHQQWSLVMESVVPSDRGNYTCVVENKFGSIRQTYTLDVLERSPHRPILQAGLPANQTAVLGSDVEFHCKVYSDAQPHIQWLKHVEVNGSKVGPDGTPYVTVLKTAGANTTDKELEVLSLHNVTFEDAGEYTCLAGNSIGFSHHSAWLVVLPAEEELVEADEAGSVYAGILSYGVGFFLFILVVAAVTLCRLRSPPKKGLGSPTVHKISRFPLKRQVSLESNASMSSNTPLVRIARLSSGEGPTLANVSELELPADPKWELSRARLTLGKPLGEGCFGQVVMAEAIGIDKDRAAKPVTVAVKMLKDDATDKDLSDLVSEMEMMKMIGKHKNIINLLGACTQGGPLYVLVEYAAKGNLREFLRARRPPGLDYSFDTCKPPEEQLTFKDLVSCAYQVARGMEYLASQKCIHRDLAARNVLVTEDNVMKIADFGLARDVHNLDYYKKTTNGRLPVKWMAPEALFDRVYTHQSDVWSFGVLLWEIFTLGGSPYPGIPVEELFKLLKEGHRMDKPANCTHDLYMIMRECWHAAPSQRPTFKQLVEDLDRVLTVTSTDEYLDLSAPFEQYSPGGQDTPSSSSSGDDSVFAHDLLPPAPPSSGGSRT

VEGFR2 (KDR) [3] = biological target: T1, VEGFR2 (KDR) (Homo sapiens (Human), UniProt P35968)
T1 sequence (P35968 20-1356, species assumed): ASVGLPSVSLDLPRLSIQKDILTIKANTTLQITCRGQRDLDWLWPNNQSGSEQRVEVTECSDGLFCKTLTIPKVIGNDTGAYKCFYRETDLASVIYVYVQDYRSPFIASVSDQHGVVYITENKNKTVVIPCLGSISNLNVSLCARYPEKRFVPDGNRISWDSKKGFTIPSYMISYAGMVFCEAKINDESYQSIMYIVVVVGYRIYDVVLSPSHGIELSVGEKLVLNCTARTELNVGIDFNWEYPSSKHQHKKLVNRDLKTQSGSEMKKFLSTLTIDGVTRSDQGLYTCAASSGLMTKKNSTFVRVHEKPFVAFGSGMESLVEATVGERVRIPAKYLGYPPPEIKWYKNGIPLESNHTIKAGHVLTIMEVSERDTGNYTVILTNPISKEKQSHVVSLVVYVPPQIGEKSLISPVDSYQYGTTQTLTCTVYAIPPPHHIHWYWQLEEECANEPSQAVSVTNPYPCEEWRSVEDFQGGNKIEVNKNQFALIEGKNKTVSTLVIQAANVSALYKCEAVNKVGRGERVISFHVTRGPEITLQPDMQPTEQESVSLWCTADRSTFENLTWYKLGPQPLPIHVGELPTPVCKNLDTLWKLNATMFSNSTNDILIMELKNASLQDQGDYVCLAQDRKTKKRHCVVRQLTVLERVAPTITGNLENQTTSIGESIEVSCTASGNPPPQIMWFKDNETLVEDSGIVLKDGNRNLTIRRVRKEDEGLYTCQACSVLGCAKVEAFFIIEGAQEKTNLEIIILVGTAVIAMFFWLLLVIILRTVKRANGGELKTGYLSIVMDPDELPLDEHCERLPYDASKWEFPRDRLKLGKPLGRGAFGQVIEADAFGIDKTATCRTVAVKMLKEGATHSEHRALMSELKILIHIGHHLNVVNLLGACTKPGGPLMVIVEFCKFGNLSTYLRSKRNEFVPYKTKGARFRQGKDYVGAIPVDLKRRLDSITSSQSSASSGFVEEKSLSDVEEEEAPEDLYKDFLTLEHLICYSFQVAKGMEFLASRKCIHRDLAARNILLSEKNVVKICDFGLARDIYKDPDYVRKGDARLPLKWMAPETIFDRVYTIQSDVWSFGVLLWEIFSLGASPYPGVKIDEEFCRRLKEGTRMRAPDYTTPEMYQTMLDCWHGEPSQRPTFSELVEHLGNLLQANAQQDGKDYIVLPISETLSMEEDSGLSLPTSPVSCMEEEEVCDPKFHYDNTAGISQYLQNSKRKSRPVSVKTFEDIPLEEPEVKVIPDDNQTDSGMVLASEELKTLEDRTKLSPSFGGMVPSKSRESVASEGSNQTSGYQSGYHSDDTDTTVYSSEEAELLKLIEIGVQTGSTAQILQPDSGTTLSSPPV

PDGFRα = PDGFRα (Homo sapiens (Human), UniProt P16234); assay: NanoSyn single-concentration kinase inhibition; assay type: biochemical; conditions: read-out: % inhibition at 100 nM, PDGFRα
Lck = Lck (Homo sapiens (Human), UniProt P06239); assay: NanoSyn single-concentration kinase inhibition; assay type: biochemical; conditions: read-out: % inhibition at 100 nM, Lck
[4] = phase I trial, cited from earlier work
Lyn-A = Lyn-A (Homo sapiens (Human), UniProt P07948); assay: NanoSyn single-concentration kinase inhibition; assay type: biochemical; conditions: read-out: % inhibition at 100 nM, Lyn-A
C-Raf = C-Raf (Homo sapiens (Human), UniProt P04049); assay: NanoSyn single-concentration kinase inhibition; assay type: biochemical; conditions: read-out: % inhibition at 100 nM, C-Raf
Sequence of C-Raf (P04049 whole entry, species assumed): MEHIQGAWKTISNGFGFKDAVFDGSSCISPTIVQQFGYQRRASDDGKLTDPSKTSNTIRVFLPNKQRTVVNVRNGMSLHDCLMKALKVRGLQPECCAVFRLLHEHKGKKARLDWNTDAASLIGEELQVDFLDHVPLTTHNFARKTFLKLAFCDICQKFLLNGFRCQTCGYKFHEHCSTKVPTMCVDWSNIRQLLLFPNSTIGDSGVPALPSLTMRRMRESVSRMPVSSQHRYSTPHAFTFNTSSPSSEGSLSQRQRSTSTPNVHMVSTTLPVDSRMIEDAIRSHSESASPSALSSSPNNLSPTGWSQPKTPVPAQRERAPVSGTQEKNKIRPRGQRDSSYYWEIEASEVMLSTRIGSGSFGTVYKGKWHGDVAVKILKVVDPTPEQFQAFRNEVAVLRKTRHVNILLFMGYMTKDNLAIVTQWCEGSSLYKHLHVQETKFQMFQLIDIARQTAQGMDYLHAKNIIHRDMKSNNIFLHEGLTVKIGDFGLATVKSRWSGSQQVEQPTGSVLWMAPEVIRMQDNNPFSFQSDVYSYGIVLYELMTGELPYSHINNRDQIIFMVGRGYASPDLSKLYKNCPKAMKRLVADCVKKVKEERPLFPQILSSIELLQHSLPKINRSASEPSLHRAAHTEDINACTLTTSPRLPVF

Csk = Csk (Homo sapiens (Human), UniProt P41240); assay: NanoSyn single-concentration kinase inhibition; assay type: biochemical; conditions: read-out: % inhibition at 100 nM, Csk
Abl2/Arg = Abl2/Arg (Homo sapiens (Human), UniProt P42684); assay: NanoSyn single-concentration kinase inhibition; assay type: biochemical; conditions: read-out: % inhibition at 100 nM, Abl2/Arg
FGFR1 = FGFR1 (Homo sapiens (Human), UniProt P11362); assay: NanoSyn single-concentration kinase inhibition; assay type: biochemical; conditions: read-out: % inhibition at 100 nM, FGFR1
VEGFR1 (FLT1) = VEGFR1 (FLT1) (Homo sapiens (Human), UniProt P17948); assay: NanoSyn single-concentration kinase inhibition; assay type: biochemical
Sequence of VEGFR1 (FLT1) (P17948 27-1338, species assumed): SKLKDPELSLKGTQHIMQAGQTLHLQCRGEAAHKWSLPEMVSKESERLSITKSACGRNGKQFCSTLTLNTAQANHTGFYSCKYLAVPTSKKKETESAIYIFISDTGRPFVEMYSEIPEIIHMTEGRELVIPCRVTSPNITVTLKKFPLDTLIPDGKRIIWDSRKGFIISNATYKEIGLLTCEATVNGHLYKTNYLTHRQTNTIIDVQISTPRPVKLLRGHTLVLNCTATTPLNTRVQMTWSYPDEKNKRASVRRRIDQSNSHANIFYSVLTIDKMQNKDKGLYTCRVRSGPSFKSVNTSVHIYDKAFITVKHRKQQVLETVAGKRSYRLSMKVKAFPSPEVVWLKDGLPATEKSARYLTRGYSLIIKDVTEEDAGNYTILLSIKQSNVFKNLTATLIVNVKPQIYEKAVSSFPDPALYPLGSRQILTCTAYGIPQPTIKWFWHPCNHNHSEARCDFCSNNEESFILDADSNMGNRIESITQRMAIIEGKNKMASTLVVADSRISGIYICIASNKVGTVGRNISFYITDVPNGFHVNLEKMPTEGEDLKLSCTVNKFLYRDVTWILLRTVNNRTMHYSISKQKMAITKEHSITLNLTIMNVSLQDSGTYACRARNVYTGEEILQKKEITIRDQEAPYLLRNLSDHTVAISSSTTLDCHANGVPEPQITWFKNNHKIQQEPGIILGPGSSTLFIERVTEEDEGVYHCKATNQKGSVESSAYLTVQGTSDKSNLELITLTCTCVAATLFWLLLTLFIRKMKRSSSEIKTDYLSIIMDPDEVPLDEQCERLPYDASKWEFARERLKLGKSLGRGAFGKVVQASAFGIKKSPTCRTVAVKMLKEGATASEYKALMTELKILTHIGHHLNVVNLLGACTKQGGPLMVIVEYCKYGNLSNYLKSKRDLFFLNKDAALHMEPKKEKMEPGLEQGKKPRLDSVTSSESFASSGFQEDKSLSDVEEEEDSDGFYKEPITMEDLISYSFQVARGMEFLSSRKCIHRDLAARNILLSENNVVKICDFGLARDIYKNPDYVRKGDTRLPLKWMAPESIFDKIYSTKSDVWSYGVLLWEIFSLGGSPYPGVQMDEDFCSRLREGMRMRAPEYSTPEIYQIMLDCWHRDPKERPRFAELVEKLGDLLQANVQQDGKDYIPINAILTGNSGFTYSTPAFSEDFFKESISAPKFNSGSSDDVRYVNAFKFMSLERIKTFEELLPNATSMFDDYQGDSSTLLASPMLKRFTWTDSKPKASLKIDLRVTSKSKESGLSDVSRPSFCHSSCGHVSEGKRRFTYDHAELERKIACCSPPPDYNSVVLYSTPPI

PDGFRβ = PDGFRβ (Homo sapiens (Human), UniProt P09619); assay: NanoSyn single-concentration kinase inhibition; assay type: biochemical; conditions: read-out: % inhibition at 100 nM, PDGFRβ
BV-173R = assay: Growth inhibition (GI50) in BV-173R CML cells; assay type: cell-based; conditions: read-out: GI50, BV-173R
BV-173 = assay: Growth inhibition (GI50) in BV-173 CML cells; assay type: cell-based; conditions: Homo sapiens, BV-173, read-out: GI50, BV-173
VEGFR2 (KDR) [5] = biological target: T1, VEGFR2 (KDR); assay: biochemical; conditions: read-out: % inhibition at 100 nM, VEGFR2 (KDR), 100 nM
EPH-A3 = EPH-A3 (Homo sapiens (Human), UniProt P29320); assay: NanoSyn single-concentration kinase inhibition; assay type: biochemical; conditions: read-out: % inhibition at 100 nM, EPH-A3
Sequence of EPH-A3 (P29320 21-983, species assumed): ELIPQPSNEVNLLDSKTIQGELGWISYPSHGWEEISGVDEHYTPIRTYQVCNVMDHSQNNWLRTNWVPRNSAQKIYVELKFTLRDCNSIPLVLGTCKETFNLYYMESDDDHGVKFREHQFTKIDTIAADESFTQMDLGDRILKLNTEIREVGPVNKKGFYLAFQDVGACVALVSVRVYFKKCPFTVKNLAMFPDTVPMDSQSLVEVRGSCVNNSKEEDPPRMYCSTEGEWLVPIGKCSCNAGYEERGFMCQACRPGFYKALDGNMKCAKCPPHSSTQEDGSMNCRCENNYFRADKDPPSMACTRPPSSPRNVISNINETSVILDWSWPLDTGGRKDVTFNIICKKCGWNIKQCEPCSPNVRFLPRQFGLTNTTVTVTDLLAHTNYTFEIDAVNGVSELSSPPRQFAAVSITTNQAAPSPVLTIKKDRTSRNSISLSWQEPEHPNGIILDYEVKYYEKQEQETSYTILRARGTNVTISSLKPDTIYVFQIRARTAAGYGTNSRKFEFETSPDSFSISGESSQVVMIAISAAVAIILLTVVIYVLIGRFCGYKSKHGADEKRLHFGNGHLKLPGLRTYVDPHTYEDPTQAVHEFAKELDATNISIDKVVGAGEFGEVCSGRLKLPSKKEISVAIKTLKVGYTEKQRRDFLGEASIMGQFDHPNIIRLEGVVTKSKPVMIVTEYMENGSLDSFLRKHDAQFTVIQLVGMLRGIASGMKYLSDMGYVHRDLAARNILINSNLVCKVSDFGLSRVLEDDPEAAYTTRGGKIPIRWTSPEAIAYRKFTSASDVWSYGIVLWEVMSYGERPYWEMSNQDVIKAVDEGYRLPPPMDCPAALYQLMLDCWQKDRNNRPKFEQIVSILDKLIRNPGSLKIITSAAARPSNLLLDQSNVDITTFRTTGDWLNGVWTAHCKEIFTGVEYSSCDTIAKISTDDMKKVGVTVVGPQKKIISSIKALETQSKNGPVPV

Tie2 = Tie2 (Homo sapiens (Human), UniProt Q02763); assay: NanoSyn single-concentration kinase inhibition; assay type: biochemical; conditions: read-out: % inhibition at 100 nM, Tie2

## CNC(=O)c1cc(Oc2ccc(NC(=O)Nc3ccc(CN4CCN(C)CC4)c(C(F)(F)F)c3)cc2)ccn1 [Compound C01]
[1]
  GI50: 4.84 µM

## CN1CCN(Cc2ccc(NC(=O)Nc3ccc(Oc4ccncc4)cc3)cc2C(F)(F)F)CC1 [Compound C02]
[1]
  GI50: 5 µM

## CN1CCN(Cc2ccc(NC(=O)Nc3ccc(Oc4ccc5ncncc5c4)cc3)cc2C(F)(F)F)CC1 [Compound C03]
[1]
  GI50: 5.58 µM

## CN1CCN(Cc2ccc(NC(=O)Nc3ccc(Nc4ccc5ncccc5c4)cc3)cc2C(F)(F)F)CC1 [Compound C04]
[1]
  GI50: 5.12 µM

## CN1CCN(Cc2ccc(NC(=O)Nc3ccc(Oc4ccc5ncccc5c4)cc3)cc2C(F)(F)F)CC1 [Compound C05]
[1]
  GI50: 5.3 µM

## CN1CCN(Cc2ccc(NC(=O)Nc3ccc(Oc4ccc5cccnc5c4)cc3)cc2C(F)(F)F)CC1 [Compound C06]
[1]
  GI50: 5.22 µM

## Cc1ccc(NC(=O)c2ccc(CN3CCN(C)CC3)cc2)cc1Nc1nccc(-c2cccnc2)n1 [imatinib]
[2]
  5-year overall survival rate: 90%

## Cc1ccc(C(=O)Nc2ccc(CN3CCN(C)CC3)c(C(F)(F)F)c2)cc1C#Cc1cnc2cccnn12 [ponatinib]
K562
  GI50: 0.0025 µM
MAP4K5
  inhibition at 0.1 µM: 102%
VEGFR3 (FLT4)
  inhibition at 0.1 µM: 100%
FLT3
  inhibition at 0.1 µM: 95%
FGFR3
  inhibition at 0.1 µM: 91%
VEGFR2 (KDR) [3]
  % inhibition at 100 nM, VEGFR2 (KDR): 102%
PDGFRα
  inhibition at 0.1 µM: 98%
Lck
  inhibition at 0.1 µM: 99%
[4]; median follow-up of 2.7 years
  patients with serious vascular AEs: 48%
[4]
  patients who developed arterial or venous thrombosis and occlusions: Twenty-seven
  patients with heart failure, including fatalities: 8%
Lyn-A
  inhibition at 0.1 µM: 99%
C-Raf
  inhibition at 0.1 µM: 118%
Csk
  inhibition at 0.1 µM: 100%
Abl2/Arg
  inhibition at 0.1 µM: 99%
FGFR1
  inhibition at 0.1 µM: 102%
VEGFR1 (FLT1); 100 nM
  % inhibition at 100 nM, VEGFR1 (FLT1): 107%
VEGFR1 (FLT1); read-out: % inhibition at 100 nM, VEGFR1 (FLT1), 100 nM
  inhibition at 0.1 µM: 100%
PDGFRβ
  inhibition at 0.1 µM: 108%
BV-173R
  GI50: 0.015 µM
BV-173
  GI50: 0.006 µM
VEGFR2 (KDR) [5]
  inhibition at 0.1 µM: 100%
EPH-A3
  inhibition at 0.1 µM: 101%
Tie2
  inhibition at 0.1 µM: 95%
